Results on 52 substances are retold here after patent US11214803B2, “Modulators of YAP1 expression” (Ionis Pharmaceuticals, Inc., priority 2019, dated 2022).

Strand notation (5' to 3'): a small letter for the sugar, then the base; units joined by * are phosphorothioate-linked, units joined directly phosphodiester-linked; [ ] holds rarer units or linkages, { } end groups; capitals alone tell only the bases. e = 2'-O-(2-methoxyethyl) (MOE); k = constrained ethyl (cEt); [5mC] = 5-methylcytosine; d = 2'-deoxy (DNA)

The first data set deals with Yap1 mRNA. The data set can be described thus: Antisense inhibition of human Yap1 in SNU-449 cells by modified oligonucleotides, single dose (Example 5, RTS36584). Format: cell-based. Particulars: Table 43 experiment; SNU-449 cells, 10,000 cells per well, free uptake, 2,000 nM, approximately 48 hours; RTS36584; Yap1 mRNA normalized to RIBOGREEN, relative to untreated control cells. The essentials:
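SNU-449 cells were given 2,000 nM oligonucleotide by free uptake for about 48 h. Yap1 mRNA was then measured by RT-qPCR with primer probe set RTS36584, normalized to total RNA by RIBOGREEN and expressed as percent of untreated control.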
In the case of “1198460 (antisense kG*kA*dA*dA*dT*dT*dG*dT*d[5mC]*dT*d[5mC]*eA*kT*eG*k[5mC]*e[5mC]) [Compound 1198460]”, the “YAP1 (% UTC)” value came out at 17 % UTC.

In the case of “1198461 (antisense kG*kG*dA*dA*dA*dT*dT*dG*dT*d[5mC]*dT*e[5mC]*kA*eT*kG*e[5mC]) [Compound 1198461]”, the “YAP1 (% UTC)” value was 24 % UTC. The same measure, in the same setting: in the case of “1198462 (antisense kT*kG*dG*dA*dA*dA*dT*dT*dG*dT*d[5mC]*eT*k[5mC]*eA*kT*eG) [Compound 1198462]” it was 27 % UTC; in that of “1198463 (antisense kA*kT*dG*dG*dA*dA*dA*dT*dT*dG*dT*e[5mC]*kT*e[5mC]*kA*eT) [Compound 1198463]”, 59 % UTC.

As for “1198464 (antisense kA*kT*dA*dT*dG*dG*dA*dA*dA*dT*dT*eG*kT*e[5mC]*kT*e[5mC]) [Compound 1198464]”, the “YAP1 (% UTC)” value was 41 % UTC.

On to “1198465 (antisense kA*kG*dT*dA*dT*dG*dT*dG*dG*d[5mC]*dA*eA*kT*eA*kA*eT) [Compound 1198465]”, for which the “YAP1 (% UTC)” value is 68 % UTC.

Turning to “1198466 (antisense kA*kG*dA*dG*dT*dA*dT*dG*dT*dG*dG*e[5mC]*kA*eA*kT*eA) [Compound 1198466]”, the “YAP1 (% UTC)” value turned out to be 12 % UTC.

As to “1198467 (antisense kT*kA*dG*dA*dG*dT*dA*dT*dG*dT*dG*eG*k[5mC]*eA*kA*eT) [Compound 1198467]”, the “YAP1 (% UTC)” value is listed as 27 % UTC. The same measure, in the same setting: under “1198468 (antisense kT*kT*dA*dG*dA*dG*dT*dA*dT*dG*dT*eG*kG*e[5mC]*kA*eA) [Compound 1198468]” stands 22 % UTC; under “1198469 (antisense kA*kT*dT*dA*dG*dA*dG*dT*dA*dT*dG*eT*kG*eG*k[5mC]*eA) [Compound 1198469]”, 23 % UTC; under “1198470 (antisense kT*kA*dT*dT*dA*dG*dA*dG*dT*dA*dT*eG*kT*eG*kG*e[5mC]) [Compound 1198470]”, 17 % UTC.

“1198471 (antisense kA*kT*dA*dT*dT*dA*dG*dA*dG*dT*dA*eT*kG*eT*kG*eG) [Compound 1198471]”: the “YAP1 (% UTC)” value was 21 % UTC. Same read-out and setting: under “1198472 (antisense kT*kA*dT*dA*dT*dT*dA*dG*dA*dG*dT*eA*kT*eG*kT*eG) [Compound 1198472]” stands 60 % UTC; under “1198473 (antisense kT*k[5mC]*dT*dA*dT*dA*dT*dT*dA*dG*dA*eG*kT*eA*kT*eG) [Compound 1198473]”, 66 % UTC. As to “1198479 (antisense kT*kT*dA*d[5mC]*dA*dT*dT*dA*dG*dG*dA*eA*k[5mC]*eA*kA*eG) [Compound 1198479]”, the “YAP1 (% UTC)” value was 65 % UTC. Same read-out and setting: in the case of “1198480 (antisense kT*kT*dT*dT*dA*d[5mC]*dA*dT*dT*dA*dG*eG*kA*eA*k[5mC]*eA) [Compound 1198480]” it was 75 % UTC; in that of “1198481 (antisense k[5mC]*kT*dT*dT*dT*dA*d[5mC]*dA*dT*dT*dA*eG*kG*eA*kA*e[5mC]) [Compound 1198481]”, 72 % UTC; in that of “1198482 (antisense kA*k[5mC]*dT*dT*dT*dT*dA*d[5mC]*dA*dT*dT*eA*kG*eG*kA*eA) [Compound 1198482]”, 63 % UTC. The same measure, in the same setting: under “1198483 (antisense k[5mC]*kA*d[5mC]*dT*dT*dT*dT*dA*d[5mC]*dA*dT*eT*kA*eG*kG*eA) [Compound 1198483]” stands 31 % UTC; under “1198484 (antisense kG*k[5mC]*dA*d[5mC]*dT*dT*dT*dT*dA*d[5mC]*dA*eT*kT*eA*kG*eG) [Compound 1198484]”, 18 % UTC; under “1198485 (antisense kA*kG*d[5mC]*dA*d[5mC]*dT*dT*dT*dT*dA*d[5mC]*eA*kT*eT*kA*eG) [Compound 1198485]”, 64 % UTC.

The data set is the same for the next values; noted with them: Table 44 experiment; SNU-449 cells, 10,000 cells per well, free uptake, 2,000 nM, approximately 48 hours; RTS36584; Yap1 mRNA normalized to RIBOGREEN, relative to untreated control cells.
Take “1198474 (antisense kT*kA*dT*dA*dA*d[5mC]*dT*dG*dG*dG*d[5mC]*eA*kA*eA*kT*eT) [Compound 1198474]”: the “YAP1 (% UTC)” value was 68 % UTC. Same read-out and setting: under “1198475 (antisense kG*kG*dT*dA*dT*dA*dA*d[5mC]*dT*dG*dG*eG*k[5mC]*eA*kA*eA) [Compound 1198475]” stands 25 % UTC; under “1198476 (antisense kA*kG*dG*dT*dA*dT*dA*dA*d[5mC]*dT*dG*eG*kG*e[5mC]*kA*eA) [Compound 1198476]”, 31 % UTC.

On to “1198477 (antisense kG*kA*dG*dG*dT*dA*dT*dA*dA*d[5mC]*dT*eG*kG*eG*k[5mC]*eA) [Compound 1198477]”, for which the “YAP1 (% UTC)” value is 47 % UTC.

“1198478 (antisense kA*kA*d[5mC]*dA*d[5mC]*dT*dG*dA*dG*dG*dT*eA*kT*eA*kA*e[5mC]) [Compound 1198478]”: the “YAP1 (% UTC)” value was determined as 60 % UTC.

For the substance “1198486 (antisense kA*kA*dG*d[5mC]*dA*d[5mC]*dT*dT*dT*dT*dA*e[5mC]*kA*eT*kT*eA) [Compound 1198486]”, the “YAP1 (% UTC)” value came to 39 % UTC. In the case of “1198487 (antisense kT*kT*dA*dA*dG*d[5mC]*dA*d[5mC]*dT*dT*dT*eT*kA*e[5mC]*kA*eT) [Compound 1198487]”, the “YAP1 (% UTC)” value is 62 % UTC. Same read-out and setting: in the case of “1198488 (antisense kG*kG*dA*dA*dG*dA*dT*d[5mC]*dT*dG*dA*eA*kA*e[5mC]*kT*e[5mC]) [Compound 1198488]” it was 66 % UTC; in that of “1198489 (antisense kT*kT*dG*dG*dA*dA*dG*dA*dT*d[5mC]*dT*eG*kA*eA*kA*e[5mC]) [Compound 1198489]”, 50 % UTC. On the same count and under the same terms, under “1198490 (antisense kT*kT*dT*dG*dG*dA*dA*dG*dA*dT*d[5mC]*eT*kG*eA*kA*eA) [Compound 1198490]” stands 53 % UTC. Regarding “1198491 (antisense k[5mC]*kT*dT*dT*dG*dG*dA*dA*dG*dA*dT*e[5mC]*kT*eG*kA*eA) [Compound 1198491]”, the “YAP1 (% UTC)” value turned out to be 22 % UTC.

Turning to “1198492 (antisense kG*k[5mC]*dT*dT*dT*dG*dG*dA*dA*dG*dA*eT*k[5mC]*eT*kG*eA) [Compound 1198492]”, the “YAP1 (% UTC)” value stood at 15 % UTC.

Regarding “1198493 (antisense kT*kG*d[5mC]*dT*dT*dT*dG*dG*dA*dA*dG*eA*kT*e[5mC]*kT*eG) [Compound 1198493]”, the “YAP1 (% UTC)” value was 28 % UTC. Same read-out and setting: under “1198494 (antisense kG*kT*dG*d[5mC]*dT*dT*dT*dG*dG*dA*dA*eG*kA*eT*k[5mC]*eT) [Compound 1198494]” stands 15 % UTC; under “1198495 (antisense kA*kG*dT*dG*d[5mC]*dT*dT*dT*dG*dG*dA*eA*kG*eA*kT*e[5mC]) [Compound 1198495]”, 22 % UTC; under “1198497 (antisense kA*kG*dG*dA*dT*dG*d[5mC]*dA*dT*dG*dG*eT*kT*eT*kT*eT) [Compound 1198497]”, 22 % UTC. As for “1198498 (antisense kT*kT*dA*dG*dG*dA*dT*dG*d[5mC]*dA*dT*eG*kG*eT*kT*eT) [Compound 1198498]”, the “YAP1 (% UTC)” value came out at 39 % UTC. Still for that read-out and setting: under “1198499 (kT*kT*dT*dA*dG*dG*dA*dT*dG*d[5mC]*dA*eT*kG*eG*kT*eT; antisense) [Compound 1198499]” stands 13 % UTC; under “1198500 (kA*kT*dT*dT*dA*dG*dG*dA*dT*dG*d[5mC]*eA*kT*eG*kG*eT; antisense) [Compound 1198500]”, 17 % UTC. The same measure, in the same setting: under “1198501 (kG*kA*dT*dT*dT*dA*dG*dG*dA*dT*dG*e[5mC]*kA*eT*kG*eG; antisense) [Compound 1198501]” stands 5 % UTC; under “1198502 (kA*kG*dA*dT*dT*dT*dA*dG*dG*dA*dT*eG*k[5mC]*eA*kT*eG; antisense) [Compound 1198502]”, 16 % UTC.

With “1198503 (k[5mC]*kA*dG*dA*dT*dT*dT*dA*dG*dG*dA*eT*kG*e[5mC]*kA*eT; antisense) [Compound 1198503]”, the “YAP1 (% UTC)” value is 31 % UTC. The same measure, in the same setting: under “1198504 (kT*k[5mC]*dA*dG*dA*dT*dT*dT*dA*dG*dG*eA*kT*eG*k[5mC]*eA; antisense) [Compound 1198504]” stands 15 % UTC; under “1198505 (kA*kT*dT*d[5mC]*dA*dG*dA*dT*dT*dT*dA*eG*kG*eA*kT*eG; antisense) [Compound 1198505]”, 73 % UTC. Regarding “1198506 (kA*kT*dA*dT*dG*dG*dT*dT*dT*dT*dG*eT*kG*eT*kG*eT; antisense) [Compound 1198506]”, the “YAP1 (% UTC)” value came to 47 % UTC.

As to “1198507 (kT*kT*dA*dT*dA*dT*dG*dG*dT*dT*dT*eT*kG*eT*kG*eT; antisense) [Compound 1198507]”, the “YAP1 (% UTC)” value stood at 17 % UTC. As for “1198508 (k[5mC]*kT*dT*dA*dT*dA*dT*dG*dG*dT*dT*eT*kT*eG*kT*eG; antisense) [Compound 1198508]”, the “YAP1 (% UTC)” value is 22 % UTC. Take “1198509 (kT*k[5mC]*dT*dT*dA*dT*dA*dT*dG*dG*dT*eT*kT*eT*kG*eT; antisense) [Compound 1198509]”: the “YAP1 (% UTC)” value is given as 20 % UTC. As for “1198510 (k[5mC]*kT*d[5mC]*dT*dT*dA*dT*dA*dT*dG*dG*eT*kT*eT*kT*eG; antisense) [Compound 1198510]”, the “YAP1 (% UTC)” value stood at 8 % UTC.

As to “1198511 (kA*k[5mC]*dT*d[5mC]*dT*dT*dA*dT*dA*dT*dG*eG*kT*eT*kT*eT; antisense) [Compound 1198511]”, the “YAP1 (% UTC)” value worked out at 53 % UTC. Same read-out and setting: under “1198512 (kA*kA*d[5mC]*dT*d[5mC]*dT*dT*dA*dT*dA*dT*eG*kG*eT*kT*eT; antisense) [Compound 1198512]” stands 62 % UTC.
